Data: patent US20050118576A1, “Novel method and assays for yeast-based drug screening” (priority 2000, published 2005)

System: W303-1B/Δydl120w::Kan^R yeast
Assay: Growth of mutant yeast in medium supplemented with Fe(II) or Cu(II) ions (OD620)
Assay type: cell-based, Saccharomyces cerevisiae
Conditions: increasing concentrations of the metal salt, SD+ medium, 19 hours at 30° C., FIG. 2A/2B
Method: For this experiment, W303-1B/Δydl120w::Kan^R and wild-type yeast precultures were grown in YPD medium for 16-24 hours at 30° C. until OD600 0.4-0.6. The precultures were diluted into SD+ medium (6.7 mg/ml yeast nitrogen base w/o amino acids, 2 mg/ml yeast extracts, 0.04 mg/ml adenine sulfate, 0.0625 mg/ml uracil, 0.04 mg/ml L-leucine, 0.03 mg/ml L-histidine-HCl, 0.03 mg/ml L-tryptophane in water) supplemented with variable concentrations of FeSO4 (dissolved in 0.1 N HCl) or CuSO4 (dissolved in water). Aliquots of 100 microliter of yeast suspension were dispensed into single wells of a 96-well microtiter plate. In the experiments with FeSO4 supplementation (FIG. 2A) culture medium for W303-1B/Δydl120w::Kan^R and wild-type yeast contained 4% w/v glucose and all wells were adjusted to the same final concentration of HCl and to DMSO (1% v/v) to prevent the solvent from interfering with the results.
Following 19 hours of culture at 30° C., the growth of yeast was determined by OD620 measurement using a microplate reader.

Row | SMILES | growth of yeast as determined by OD620 measurement
1 | O=S(=O)([O-])[O-].[Cu+2] [CuSO4] | clearly inhibit the growth of the frataxin deficient yeast
2 | O=S(=O)([O-])[O-].[Fe+2] [FeSO4] | clearly inhibit the growth of the frataxin deficient yeast
